Laboratory results reported in US12697313B2, “Methods of treating anemia using formoterol or a pharmaceutically acceptable salt thereof” (Dana-Farber Cancer Institute, Inc., priority 2022, dated 2026).
Counter-ions that a name gives are not always drawn.

System: phenylhydrazine (PHZ)-treated mice
Assay: FF/Arf i.p. in PHZ-treated mice at sub-lethal dose of 60 mg/kg
Format: in vivo

With `COc1ccc(C[C@@H](C)NC[C@H](O)c2ccc(O)c(NC=O)c2)cc1` [Arf, N-[2-hydroxy-5-[(1R)-1-hydroxy-2-[[(1R)-2-(4-methoxyphenyl)-1-methylethyl]amino]ethyl]phenyl]-formamide, (2R,3R)-2,3-dihydroxybutanedioate (1:1 salt)] as the compound, how does the “transferrin receptor expression in CFU-e derived from BMPs” value (FIG. 39B) read?
The value was “transferrin receptor expression is enhanced”.

And the “Hemoglobin (Hb) in peripheral blood” value (after 7 and 14 days of i.p., FIG. 35)?
The value was “increase Hemoglobin (Hb)”.

What about the “RBC parameters (HCT % and RBCs) in peripheral blood” value (after 7 days of i.p., FIG. 34) of the same compound?
Its value is “increases RBC parameters”.

And the “LS-K and LSK cells in bone marrow progenitors” value (after 14 days of i.p., FIG. 36A-36B)?
The value was “increase LSK, LS-K, and mitochondrial activity”.

What about the “mitochondrial membrane potential (TMRE staining) in bone marrow progenitors” value (after 14 days of i.p., FIG. 36C) of the same compound?
The value was “increase LSK, LS-K, and mitochondrial activity”.

What about the “megakaryocyte erythrocyte progenitors (MEP) in BM” value (after 14 days of i.p., FIG. 37A) of the same compound?
The value was “increase megakaryocyte erythrocyte progenitors (MEP)”.

What about the body weights (i.p., PHZ 60 mg/kg, FIG. 32) of the same compound?
Its body weights is “enhances body weights”.

What about the “platelets and WBCs in peripheral blood” value (i.p., PHZ 60 mg/kg, FIG. 33) of the same compound?
The value was “do not affect platelets and WBCs”.
